Kd data for 24 compounds are collected here from patent US11319299B2, “Substituted carboxamides as inhibitors of WDR5 protein-protein binding” (PROPELLON THERAPEUTICS INC., priority 2016, dated 2022).

The target of one assay is WDR5 (Homo sapiens (Human), UniProt P61964). Description: Surface Plasmon Resonance (SPR) assay, KD and residence time. The class given is binding. To be noted: surface plasmon resonance (SPR) assay; read-out: WDR5 binding affinity (KD).
The term Kd denotes the concentration at which binding is half-saturated. `CCOC(=O)c1ccnc(N2CC=C(c3cc(NC(=O)c4c[nH]c(=O)cc4C(F)(F)F)c(N4C[C@@H](C)N(C)[C@@H](C)C4)cc3F)CC2)n1` [Example 276, ethyl 2-[4-[2-fluoro-5-[[6-oxo-4-(trifluoromethyl)-1H-pyridine-3-carbonyl]amino]-4-[(3R,5S)-3,4,5-trimethylpiperazin-1-yl]phenyl]-3,6-dihydro-2H-pyridin-1-yl]pyrimidine-4-carboxylate]: the Kd stood at 1.67 nM. Consider `C[C@@H]1CN(c2cc(F)c(C3=CCN(C(=O)CC(C)(C)C)CC3)cc2NC(=O)c2c[nH]c(=O)cc2C(F)(F)F)C[C@H](C)N1C` [Example 255, N-[5-[1-(3,3-dimethylbutanoyl)-3,6-dihydro-2H-pyridin-4-yl]-4-fluoro-2-[(3R,5S)-3,4,5-trimethylpiperazin-1-yl]phenyl]-6-oxo-4-(trifluoromethyl)-1H-pyridine-3-carboxamide], for which the Kd was 1.98 nM. Consider `C[C@@H]1CN(c2cc(F)c(C3CCNCC3)cc2NC(=O)c2c[nH]c(=O)cc2C(F)(F)F)C[C@H](C)N1C` [Example 236, N-[4-fluoro-5-piperidin-4-yl-2-[(3R,5S)-3,4,5-trimethylpiperazin-1-yl]phenyl]-6-oxo-4-(trifluoromethyl)-1H-pyridine-3-carboxamide], for which the Kd stood at 31.1 nM.

As to `C[C@@H]1CN(c2cc(F)c(-c3ccnc(N4CCOCC4)c3)cc2NC(=O)c2cn(C)c(=O)cc2C(F)(F)F)C[C@H](C)N1C` [Example 226, N-[4-fluoro-5-(2-morpholin-4-ylpyridin-4-yl)-2-[(3R,5S)-3,4,5-trimethylpiperazin-1-yl]phenyl]-1-methyl-6-oxo-4-(trifluoromethyl)pyridine-3-carboxamide], the Kd was 7.99 nM. Same read-out and setting: to `C[C@@H]1CN(c2cc(F)c(C3=CCN(C(=O)CN(C)C)CC3)cc2NC(=O)c2c[nH]c(=O)cc2C(F)(F)F)C[C@H](C)N1C` [Example 305, N-[5-[1-[2-(dimethylamino)acetyl]-3,6-dihydro-2H-pyridin-4-yl]-4-fluoro-2-[(3R,5S)-3,4,5-trimethylpiperazin-1-yl]phenyl]-6-oxo-4-(trifluoromethyl)-1H-pyridine-3-carboxamide] belongs 2.61 nM; to `C[C@@H]1CN(c2cc(F)c(-c3cnc(O)c(C#N)c3)cc2NC(=O)c2c[nH]c(=O)cc2C(F)(F)F)C[C@H](C)N1C` [Example 123, N-[5-(5-cyano-6-hydroxypyridin-3-yl)-4-fluoro-2-[(3R,5S)-3,4,5-trimethylpiperazin-1-yl]phenyl]-6-oxo-4-(trifluoromethyl)-1H-pyridine-3-carboxamide], 9.88 nM. In the case of `C[C@@H]1CN(c2cc(F)c(-c3cnc(N4CCOCC4)nc3)cc2NC(=O)c2cc(F)ccc2C(F)(F)F)C[C@H](C)N1C` [Example 88, 5-fluoro-N-[4-fluoro-5-(2-morpholin-4-ylpyrimidin-5-yl)-2-[(3R,5S)-3,4,5-trimethylpiperazin-1-yl]phenyl]-2-(trifluoromethyl)benzamide], the Kd is 24.1 nM. Consider `CC1CN(c2cc(F)c(-c3cnc(N4CCOC(C)(C)C4)nc3)cc2NC(=O)c2c[nH]c(=O)cc2C(F)(F)F)CCN1C` (stereo in doubt) [Example 349, N-[5-[2-(2,2-dimethylmorpholin-4-yl)pyrimidin-5-yl]-4-fluoro-2-[(3R)-3,4-dimethylpiperazin-1-yl]phenyl]-6-oxo-4-(trifluoromethyl)-1H-pyridine-3-carboxamide], for which the Kd worked out at 2.35 nM. Same read-out and setting: for `C[C@@H]1CN(c2cc(F)c(-c3cnc(N4CCOCC4)nc3)cc2NC(=O)c2cncnc2C(F)(F)F)C[C@H](C)N1C` [Example 187, N-[4-fluoro-5-(2-morpholin-4-ylpyrimidin-5-yl)-2-[(3R,5S)-3,4,5-trimethylpiperazin-1-yl]phenyl]-4-(trifluoromethyl)pyrimidine-5-carboxamide] the value was 209 nM; for `COc1cnc(N2CC=C(c3cc(NC(=O)c4c[nH]c(=O)cc4C(F)(F)F)c(N4C[C@@H](C)N(C)[C@@H](C)C4)cc3F)CC2)nc1` [Example 366, N-[4-fluoro-5-[1-(5-methoxypyrimidin-2-yl)-3,6-dihydro-2H-pyridin-4-yl]-2-[(3R,5S)-3,4,5-trimethylpiperazin-1-yl]phenyl]-6-oxo-4-(trifluoromethyl)-1H-pyridine-3-carboxamide], 1.76 nM; for `C[C@@H]1CN(c2cc(F)c(-c3cnc(N4CC(C)(C)OC(C)(C)C4)nc3)cc2NC(=O)c2c[nH]c(=O)cc2C(F)(F)F)C[C@H](C)N1C` [Example 320, N-[4-fluoro-2-[(3R,5S)-3,4,5-trimethylpiperazin-1-yl]-5-[2-(2,2,6,6-tetramethylmorpholin-4-yl)pyrimidin-5-yl]phenyl]-6-oxo-4-(trifluoromethyl)-1H-pyridine-3-carboxamide], 0.722 nM. In the case of `CC1CN(c2cc(F)c(-c3cnc(N4CCOCC4)nc3)cc2NC(=O)c2ccc(F)cc2Cl)CCN1C` (stereo in doubt) [Example 230, 2-chloro-4-fluoro-N-[4-fluoro-5-(2-morpholin-4-ylpyrimidin-5-yl)-2-[(3R)-3,4-dimethylpiperazin-1-yl]phenyl]benzamide], the Kd turned out to be 8.95 nM.

Staying with this assay, now noted: surface plasmon resonance (SPR); read-out: WDR5 binding affinity (KD).
Consider `C[C@@H]1CN(c2ccc(-c3cc(NC(=O)c4c[nH]c(=O)cc4C(F)(F)F)c(N4CCN(C)[C@H](C)C4)cc3F)cn2)CCO1` (stereo in doubt) [Example 433, N-[4-fluoro-2-[(3R)-3,4-dimethylpiperazin-1-yl]-5-[6-[(2R)-2-methylmorpholin-4-yl]pyridin-3-yl]phenyl]-6-oxo-4-(trifluoromethyl)-1H-pyridine-3-carboxamide], for which the Kd stood at 2.84 nM. Regarding `C[C@@H]1CN(c2cc(F)c(-c3cnc(N4CCOC[C@H]4C)nc3)cc2NC(=O)c2ccc(F)cc2C(F)(F)F)CCN1C` (stereo in doubt) [Example 736, 4-fluoro-N-[4-fluoro-2-[(3R)-3,4-dimethylpiperazin-1-yl]-5-[2-[(3R)-3-methylmorpholin-4-yl]pyrimidin-5-yl]phenyl]-2-(trifluoromethyl)benzamide], the Kd was 0.29 nM. Same read-out and setting: for `CC(C)OC(=O)N1CCC=C(c2cc(NC(=O)c3ccc(F)cc3C(F)(F)F)c(N3CCN(C)C(C)C3)cc2F)C1` (stereo in doubt) [Example 728, propan-2-yl 5-[2-fluoro-5-[[4-fluoro-2-(trifluoromethyl)benzoyl]amino]-4-[(3R)-3,4-dimethylpiperazin-1-yl]phenyl]-3,6-dihydro-2H-pyridine-1-carboxylate] the value was 3.55 nM; for `C[C@@H]1CN(c2cc(F)c(C3=CCN(c4ncc(CN5CCOCC5)cn4)C3)cc2NC(=O)c2c[nH]c(=O)cc2C(F)(F)F)C[C@H](C)N1C` [Example 458, N-[4-fluoro-5-[1-[5-(morpholin-4-ylmethyl)pyrimidin-2-yl]-2,5-dihydropyrrol-3-yl]-2-[(3R,5S)-3,4,5-trimethylpiperazin-1-yl]phenyl]-6-oxo-4-(trifluoromethyl)-1H-pyridine-3-carboxamide], 0.474 nM. Still for that read-out and setting: for `C[C@@H]1CN(c2cc(F)c(-c3cc(F)c(C(=O)N(C)C4CCCC4)c(F)c3)cc2NC(=O)c2c[nH]c(=O)cc2C(F)(F)F)C[C@H](C)N1C` [Example 761, N-(4′-(cyclopentyl(methyl)carbamoyl)-3′,5′,6-trifluoro-4-((3S,5R)-3,4,5-trimethylpiperazin-1-yl)-[1,1′-biphenyl]-3-yl)-6-oxo-4-(trifluoromethyl)-1,6-dihydropyridine-3-carboxamide] the value was 2 nM.

With “N-[5-[2-[4-(cyclopropylmethyl)piperazin-1-yl]pyrimidin-5-yl]-4-fluoro-2-[(3R)-3,4-dimethylpiperazin-1-yl]phenyl]-4-fluoro-2-(trifluoromethyl)benzamide [Example 560]”, the Kd is 1.12 nM. Take “4-(difluoromethyl)-N-[4-fluoro-5-[6-(oxan-4-yloxy)pyridin-3-yl]-2-[(3R)-3,4-dimethylpiperazin-1-yl]phenyl]-6-oxo-1H-pyridine-3-carboxamide [Example 403]”: the dissociation constant Kd amounted to 1.16 nM.

Consider `C[C@@H]1CN(c2cc(F)c(C3=CCN(c4ncc(C#N)cn4)C3)cc2NC(=O)c2c[nH]c(=O)cc2C(F)(F)F)C[C@H](C)N1C` [Example 588, N-[5-[1-(5-cyanopyrimidin-2-yl)-2,5-dihydropyrrol-3-yl]-4-fluoro-2-[(3R,5S)-3,4,5-trimethylpiperazin-1-yl]phenyl]-6-oxo-4-(trifluoromethyl)-1H-pyridine-3-carboxamide], for which the Kd was determined as 1.72 nM. Regarding `C[C@@H]1CN(c2cc(F)c(-c3ccc4ncsc4c3)cc2NC(=O)c2c[nH]c(=O)cc2C(F)(F)F)C[C@H](C)N1C` [Example 679, N-[5-(1,3-benzothiazol-6-yl)-4-fluoro-2-[(3R,5S)-3,4,5-trimethylpiperazin-1-yl]phenyl]-6-oxo-4-(trifluoromethyl)-1H-pyridine-3-carboxamide], the Kd was 2.97 nM. In the case of `C[C@@H]1CN(c2ncc(-c3cc(NC(=O)c4cn(C)c(=O)cc4C(F)(F)F)c(N4C[C@@H](C)N(C)[C@@H](C)C4)cc3F)cn2)CCO1` [Example 640, N-[4-fluoro-5-[2-[(2R)-2-methylmorpholin-4-yl]pyrimidin-5-yl]-2-[(3R,5S)-3,4,5-trimethylpiperazin-1-yl]phenyl]-1-methyl-6-oxo-4-(trifluoromethyl)pyridine-3-carboxamide], the equilibrium dissociation constant (Kd) stood at 1.74 nM. In the case of `CN(CC1CC1)[C@@H]1CCN(c2cc(F)c(-c3cnc(N4CCOCC4)nc3)cc2NC(=O)c2cn(C)c(=O)cc2C(F)(F)F)C1` [Example 587, N-[4-fluoro-5-(2-morpholin-4-ylpyrimidin-5-yl)-2-[(3R)-3-[cyclopropylmethyl(methyl)amino]pyrrolidin-1-yl]phenyl]-1-methyl-6-oxo-4-(trifluoromethyl)pyridine-3-carboxamide], the Kd is 253 nM.

For `C[C@@H]1CN(c2cc(F)c(C3=CCN(C(=O)OC4(C)CCC4)C3)cc2NC(=O)c2c[nH]c(=O)cc2C(F)F)C[C@H](C)N1C` [Example 630, 1-Methylcyclobutyl 3-(5-(4-(difluoromethyl)-6-oxo-1,6-dihydropyridine-3-carboxamido)-2-fluoro-4-((3S,5R)-3,4,5-trimethylpiperazin-1-yl)phenyl)-2,5-dihydro-1H-pyrrole-1-carboxylate], the Kd was 1.98 nM.
